Measured values from the Kinase Knowledgebase extract (Sharma et al. 2016).

Target: CDK2 (UniProt P24941)
Test: Enzyme Assay

COc1ccc(CNc2nc(NCCCNC(=O)[C@H]3CSC(=O)N3)nc3c2ncn3C(C)C)cc1
IC50: 2 µM
